The subject of this test is MV-4-11 cells. Nature of the test: Gene expression microarray analysis (Affymetrix PrimeView) and GSEA. To be noted: MV-4-11 cells, 48 hours. In kind it is cell-based, human. Details: RFU PODN (11730768_x_at) / Fold change /veh PODN (11730768_x_at) / RFU LINC00158 (11744669_a_at) / Fold change /veh LINC00158 (11744669_a_at) / RFU DUSP10 (11751237_a_at) / Fold change /veh DUSP10 (11751237_a_at) / RFU ID3 (11757404_x_at) / Fold change /veh ID3 (11757404_x_at) / RFU PLEKHG5 (11737974_s_at) / Fold change /veh PLEKHG5 (11737974_s_at) / RFU LRRC4B (11730491_at) / Fold change /veh LRRC4B (11730491_at) / RFU GIMAP4 (11747438_a_at) / Fold change /veh GIMAP4 (11747438_a_at) / RFU KRT8 (11758183_x_at) / Fold change /veh KRT8 (11758183_x_at) / RFU CNN1 (11734310_a_at) / Fold change /veh CNN1 (11734310_a_at) / RFU VPS37D (11726825_at) / Fold change /veh VPS37D (11726825_at) / RFU C10orf10 (11716522_x_at) / Fold change /veh C10orf10 (11716522_x_at) / RFU KIR2DL2 /// KIR2DL4 /// KIR2DL5A /// KIR2DL5B /// KIR2DS1 /// KIR2DS2 /// KIR2DS3 /// KIR2DS4 /// KIR3DL3 /// KIR3DL3 /// KIR3DS1 (11738374_at) / Fold change /veh KIR2DL2 /// KIR2DL4 /// KIR2DL5A /// KIR2DL5B /// KIR2DS1 /// KIR2DS2 /// KIR2DS3 /// KIR2DS4 /// KIR3DL3 /// KIR3DL3 /// KIR3DS1 (11738374_at) / RFU C1QL1 (11718748_at) / Fold change /veh C1QL1 (11718748_at) / RFU TMPRSS4 (11747572_a_at) / Fold change /veh TMPRSS4 (11747572_a_at) / RFU HAMP (11756126_x_at) / Fold change /veh HAMP (11756126_x_at) / RFU RNFT2 (11725882_a_at) / Fold change /veh RNFT2 (11725882_a_at) / RFU NR4A2 (11747474_a_at) / Fold change /veh NR4A2 (11747474_a_at) / RFU ABCC12 (11746883_a_at) / Fold change /veh ABCC12 (11746883_a_at) / RFU TMEM136 (11760407_x_at) / Fold change /veh TMEM136 (11760407_x_at) / RFU CLDN22 /// WWC2 (11732394_at) / Fold change /veh CLDN22 /// WWC2 (11732394_at) / RFU HLA-DPB1 (11760878_x_at) / Fold change /veh HLA-DPB1 (11760878_x_at) / RFU SPINT1 (11716480_a_at) / Fold change /veh SPINT1 (11716480_a_at) / RFU GAP43 (11754022_s_at) / Fold change /veh GAP43 (11754022_s_at) / RFU A4GNT (11735810_at) / Fold change /veh A4GNT (11735810_at) / RFU PRB3 (11715151_x_at) / Fold change /veh PRB3 (11715151_x_at) / RFU TUBB4B (11761932_at) / Fold change /veh TUBB4B (11761932_at) / RFU CAPN14 (11732068_a_at) / Fold change /veh CAPN14 (11732068_a_at) / RFU TMCC2 (11721928_a_at) / Fold change /veh TMCC2 (11721928_a_at) / RFU IRGQ (11745062_a_at) / Fold change /veh IRGQ (11745062_a_at) / RFU FAM174B (11720279_a_at) / Fold change /veh FAM174B (11720279_a_at) / RFU TMPRSS4 (11748680_a_at) / Fold change /veh TMPRSS4 (11748680_a_at) / RFU FAM212B (11763350_a_at) / Fold change /veh FAM212B (11763350_a_at) / RFU PLEKHG5 (11743358_a_at) / Fold change /veh PLEKHG5 (11743358_a_at) / RFU ZSCAN30 (11745921_a_at) / Fold change /veh ZSCAN30 (11745921_a_at) / RFU CMKLR1 (11741424_a_at) / Fold change /veh CMKLR1 (11741424_a_at) / RFU LOC101060620 /// MAPK8IP1 (11723275_at) / Fold change /veh LOC101060620 /// MAPK8IP1 (11723275_at) / RFU SPTSSB (11747773_x_at) / Fold change /veh SPTSSB (11747773_x_at) / RFU PRSS12 (11739890_at) / Fold change /veh PRSS12 (11739890_at) / RFU BIN1 (11741810_x_at) / Fold change /veh BIN1 (11741810_x_at) / RFU WNT11 (11732464_a_at) / Fold change /veh WNT11 (11732464_a_at) / RFU C10orf10 (11716521_a_at) / Fold change /veh C10orf10 (11716521_a_at) / RFU C5orf56 (11738089_at) / Fold change /veh C5orf56 (11738089_at) / RFU CYB561 (11721691_x_at) / Fold change /veh CYB561 (11721691_x_at) / RFU ANKRD19P (11752326_a_at) / Fold change /veh ANKRD19P (11752326_a_at) / RFU OR2T12 /// OR2T33 /// OR2T8 (11738714_s_at) / Fold change /veh OR2T12 /// OR2T33 /// OR2T8 (11738714_s_at) / RFU VCAN (11748164_a_at) / Fold change /veh VCAN (11748164_a_at) / RFU JSRP1 (11732532_at) / Fold change /veh JSRP1 (11732532_at) / RFU KRTAP10-11 (11738290_x_at) / Fold change /veh KRTAP10-11 (11738290_x_at) / RFU MYO3A (11730013_a_at) / Fold change /veh MYO3A (11730013_a_at) / RFU EBF3 (11725865_a_at) / Fold change /veh EBF3 (11725865_a_at) / RFU CAMK2N1 (11719241_x_at) / Fold change /veh CAMK2N1 (11719241_x_at) / RFU C5orf56 (11738088_a_at) / Fold change /veh C5orf56 (11738088_a_at) / RFU OLFML3 (11715873_a_at) / Fold change /veh OLFML3 (11715873_a_at) / RFU LOC100653217 /// NTM (11731650_a_at) / Fold change /veh LOC100653217 /// NTM (11731650_a_at) / RFU MAPK11 (11762145_a_at) / Fold change /veh MAPK11 (11762145_a_at) / RFU FIZ1 (11724087_x_at) / Fold change /veh FIZ1 (11724087_x_at) / RFU OASL (11726364_x_at) / Fold change /veh OASL (11726364_x_at) / RFU SOX15 (11748057_x_at) / Fold change /veh SOX15 (11748057_x_at) / RFU CD79A (11719716_a_at) / Fold change /veh CD79A (11719716_a_at) / RFU HIST1H1D (11736915_at) / Fold change /veh HIST1H1D (11736915_at) / RFU CASKIN2 (11723855_a_at) / Fold change /veh CASKIN2 (11723855_a_at) / RFU LOC730098 (11760151_x_at) / Fold change /veh LOC730098 (11760151_x_at) / RFU OR4N2 (11742367_at) / Fold change /veh OR4N2 (11742367_at) / RFU PRRT2 (11749266_a_at) / Fold change /veh PRRT2 (11749266_a_at) / RFU SNX32 (11753110_a_at) / Fold change /veh SNX32 (11753110_a_at) / RFU CDHR5 (11726645_a_at) / Fold change /veh CDHR5 (11726645_a_at) / RFU RCAN1 (11760418_a_at) / Fold change /veh RCAN1 (11760418_a_at) / RFU FAM167A (11723789_a_at) / Fold change /veh FAM167A (11723789_a_at) / RFU FAM26E (11764081_at) / Fold change /veh FAM26E (11764081_at) / RFU ISYNA1 (11749810_s_at) / Fold change /veh ISYNA1 (11749810_s_at) / RFU ACY1 (11761880_at) / Fold change /veh ACY1 (11761880_at) / RFU 11764098_at / Fold change /veh 11764098_at / RFU SAMD14 (11745864_x_at) / Fold change /veh SAMD14 (11745864_x_at) / RFU NPB (11741838_a_at) / Fold change /veh NPB (11741838_a_at) / RFU TMPRSS6 (11731388_a_at) / Fold change /veh TMPRSS6 (11731388_a_at) / RFU KRTAP10-2 (11738614_at) / Fold change /veh KRTAP10-2 (11738614_at) / RFU ARHGAP8 /// PRR5-ARHGAP8 (11727945_x_at) / Fold change /veh ARHGAP8 /// PRR5-ARHGAP8 (11727945_x_at) / RFU KRTAP5-7 /// NADSYN1 (11734609_at) / Fold change /veh KRTAP5-7 /// NADSYN1 (11734609_at) / RFU RASL12 (11751679_a_at) / Fold change /veh RASL12 (11751679_a_at) / RFU CDKN2B (11736163_a_at) / Fold change /veh CDKN2B (11736163_a_at) / RFU PRF1 (11729649_at) / Fold change /veh PRF1 (11729649_at) / RFU, ZNF638 /// ZNF638-IT1 / Fold change vs veh, ZNF638 /// ZNF638-IT1 / RFU, PANK3 / Fold change vs veh, PANK3 / RFU, SH3YL1 / Fold change vs veh, SH3YL1 / RFU, ZEB2 / Fold change vs veh, ZEB2 / RFU, NRIP1 / Fold change vs veh, NRIP1 / RFU, PTTG1IP / Fold change vs veh, PTTG1IP / RFU, CAPN2 / Fold change vs veh, CAPN2 / RFU, MED14 / Fold change vs veh, MED14 / RFU, SNORA58 / Fold change vs veh, SNORA58 / RFU, C1orf63 / Fold change vs veh, C1orf63 / RFU, LRRFIP1 / Fold change vs veh, LRRFIP1 / RFU, NDUFAF7 / Fold change vs veh, NDUFAF7 / RFU, SLC12A2 / Fold change vs veh, SLC12A2 / RFU, IBTK / Fold change vs veh, IBTK / RFU, ESF1 / Fold change vs veh, ESF1 / Fold change vs veh, TMEM50B / RFU, TAOK1 / Fold change vs veh, TAOK1 / RFU, ACBD3 / Fold change vs veh, ACBD3 / RFU, TMA16 / Fold change vs veh, TMA16 / RFU, RWDD3 / Fold change vs veh, RWDD3 / RFU, BCAT1 / Fold change vs veh, BCAT1 / RFU, EDEM3 / Fold change vs veh, EDEM3 / RFU, TMEM33 / Fold change vs veh, TMEM33 / RFU, WDR75 / Fold change vs veh, WDR75 / RFU, AHCTF1 / Fold change vs veh, AHCTF1 / RFU, TFRC / Fold change vs veh, TFRC / RFU, ZDHHC17 / Fold change vs veh, ZDHHC17 / RFU, NOM1 / Fold change vs veh, NOM1 / RFU, ARL8B / Fold change vs veh, ARL8B / RFU, ZBTB11 / Fold change vs veh, ZBTB11 / RFU, TAMM41 / Fold change vs veh, TAMM41 / RFU, KIAA1704 /// LOC100996395 / Fold change vs veh, KIAA1704 /// LOC100996395 / RFU, ING1 / Fold change vs veh, ING1 / RFU, TRMT61B / Fold change vs veh, TRMT61B / RFU, FUBP3 / Fold change vs veh, FUBP3 / RFU, TP53 / Fold change vs veh, TP53 / RFU, TNKS2 / Fold change vs veh, TNKS2 / RFU, ZFP14 / Fold change vs veh, ZFP14 / RFU, ACTR2 / Fold change vs veh, ACTR2 / RFU, PPP3R1 / Fold change vs veh, PPP3R1 / RFU, PIK3R1 / Fold change vs veh, PIK3R1 / RFU, HNRNPA1 / Fold change vs veh, HNRNPA1 / RFU, RNF170 / Fold change vs veh, RNF170 / RFU, ZNF28 / Fold change vs veh, ZNF28 / RFU, RNGTT / Fold change vs veh, RNGTT / RFU, OGT / Fold change vs veh, OGT / RFU, BRD1 / Fold change vs veh, BRD1 / RFU, MARS / Fold change vs veh, MARS / RFU, ZNF655 / Fold change vs veh, ZNF655 / RFU, FAHD1 / Fold change vs veh, FAHD1 / RFU, BDP1 / Fold change vs veh, BDP1 / RFU, LRRCC1 / Fold change vs veh, LRRCC1 / RFU, ARID1A / Fold change vs veh, ARID1A / RFU, ZNF146 / Fold change vs veh, ZNF146 / RFU, ZNF330 / Fold change vs veh, ZNF330 / RFU, GPN3 / Fold change vs veh, GPN3 / RFU, C9orf123 / Fold change vs veh, C9orf123 / RFU, N4BP2L2 / Fold change vs veh, N4BP2L2 / RFU, ARFIP1 / Fold change vs veh, ARFIP1 / RFU, FAM179B / Fold change vs veh, FAM179B / RFU, BCL10 / Fold change vs veh, BCL10 / RFU, UHRF1BP1L / Fold change vs veh, UHRF1BP1L / RFU, BET1 / Fold change vs veh, BET1 / RFU, CNOT2 / Fold change vs veh, CNOT2 / RFU, ZNF268 / Fold change vs veh, ZNF268 / Fold change vs veh, ZNF507 / RFU, DGCR2 / Fold change vs veh, DGCR2 / RFU, WDSUB1 / Fold change vs veh, WDSUB1 / Fold change vs veh, HSP90B1 /// MIR3652 / RFU, ADSS / Fold change vs veh, ADSS / RFU, GK / Fold change vs veh, GK / RFU, ZNF148 / Fold change vs veh, ZNF148 / RFU, TAF9 / Fold change vs veh, TAF9 / RFU, SLC1A5 / Fold change vs veh, SLC1A5 / RFU, SLMO2 / Fold change vs veh, SLMO2 / RFU, ABCC4 / Fold change vs veh, ABCC4 / RFU, LOC101060439 /// RAP1B / Fold change vs veh, LOC101060439 /// RAP1B / RFU, RFX7 / Fold change vs veh, RFX7 / RFU, GTPBP10 / Fold change vs veh, GTPBP10 / RFU, CNEP1R1 / Fold change vs veh, CNEP1R1 / RFU, BIVM-ERCC5 /// ERCC5 / Fold change vs veh, BIVM-ERCC5 /// ERCC5 / RFU, ILF3 / Fold change vs veh, ILF3 / RFU 11762660_at / Fold change /veh 11762660_at / RFU VCAN (11757783_s_at) / Fold change /veh VCAN (11757783_s_at) / RFU DDX43 (11728927_at) / Fold change /veh DDX43 (11728927_at) / RFU KRT8 (11758188_x_at) / Fold change /veh KRT8 (11758188_x_at) / RFU NKD1 (11759106_at) / Fold change /veh NKD1 (11759106_at) / RFU SRD5A1 (11742802_a_at) / Fold change /veh SRD5A1 (11742802_a_at) / RFU TPSAB1 /// TPSB2 (11721975_s_at) / Fold change /veh TPSAB1 /// TPSB2 (11721975_s_at) / RFU GSTM3 (11746129_a_at) / Fold change /veh GSTM3 (11746129_a_at) / RFU IL23R (11737362_x_at) / Fold change /veh IL23R (11737362_x_at) / RFU TMEM51 (11727254_a_at) / Fold change /veh TMEM51 (11727254_a_at) / RFU PIWIL2 (11732686_x_at) / Fold change /veh PIWIL2 (11732686_x_at) / RFU ORM1 (11744905_x_at) / Fold change /veh ORM1 (11744905_x_at) / RFU CCDC152 (11743942_at) / Fold change /veh CCDC152 (11743942_at) / RFU ECM1 (11717891_a_at) / Fold change /veh ECM1 (11717891_a_at) / RFU IL23R (11748794_a_at) / Fold change /veh IL23R (11748794_a_at) / RFU TNFAIP8L3 (11732012_x_at) / Fold change /veh TNFAIP8L3 (11732012_x_at) / RFU MBOAT4 (11741988_at) / Fold change /veh MBOAT4 (11741988_at) / RFU 11764193_at / Fold change /veh 11764193_at / RFU TMEM53 (11763286_at) / Fold change /veh TMEM53 (11763286_at) / RFU MAGEB2 (11727129_at) / Fold change /veh MAGEB2 (11727129_at) / RFU TMEM200A (11744735_a_at) / Fold change /veh TMEM200A (11744735_a_at) / RFU CCDC152 (11751479_a_at) / Fold change /veh CCDC152 (11751479_a_at) / RFU FAM211A (11726209_a_at) / Fold change /veh FAM211A (11726209_a_at) / RFU RGS16 (11746705_a_at) / Fold change /veh RGS16 (11746705_a_at) / RFU VCAN (11755009_s_at) / Fold change /veh VCAN (11755009_s_at) / RFU RHOB (11743442_s_at) / Fold change /veh RHOB (11743442_s_at) / RFU RGS16 (11720943_a_at) / Fold change /veh RGS16 (11720943_a_at) / RFU RGS16 (11720944_at) / Fold change /veh RGS16 (11720944_at) / RFU, VPS4B / Fold change vs veh, VPS4B / RFU, CREB1 / Fold change vs veh, CREB1 / RFU, DNAJC13 / Fold change vs veh, DNAJC13 / RFU, GNAQ / Fold change vs veh, GNAQ / RFU, CDK5R1 / Fold change vs veh, CDK5R1 / RFU, ZRANB3 / Fold change vs veh, ZRANB3 / RFU, CUL4A / Fold change vs veh, CUL4A / RFU, CCNY / Fold change vs veh, CCNY / RFU, UFL1 / Fold change vs veh, UFL1 / RFU, COG3 / Fold change vs veh, COG3 / RFU, DIAPH2 / Fold change vs veh, DIAPH2 / RFU, SKA2 / Fold change vs veh, SKA2 / RFU, AFF3 / Fold change vs veh, AFF3 / RFU, LMF1 / Fold change vs veh, LMF1 / RFU, IPO11 / Fold change vs veh, IPO11 / RFU, DFFB / Fold change vs veh, DFFB / RFU, FOXP1 / Fold change vs veh, FOXP1 / RFU, CARD8 / Fold change vs veh, CARD8 / RFU, STRN3 / Fold change vs veh, STRN3 / RFU, ADK / Fold change vs veh, ADK / RFU, RASSF2 / Fold change vs veh, RASSF2 / RFU, WIPF1 / Fold change vs veh, WIPF1 / RFU, LARP1B / Fold change vs veh, LARP1B / RFU, RASA1 / Fold change vs veh, RASA1 / RFU, RB1 / Fold change vs veh, RB1 / RFU, PPFIA1 / Fold change vs veh, PPFIA1 / RFU, MAT2A / Fold change vs veh, MAT2A / RFU, CCT5 / Fold change vs veh, CCT5 / RFU, WDR92 / Fold change vs veh, WDR92 / RFU, CUX1 / Fold change vs veh, CUX1 / RFU, TTC7A / Fold change vs veh, TTC7A / RFU, TMEM135 / Fold change vs veh, TMEM135 / RFU, DEPTOR / Fold change vs veh, DEPTOR / RFU, CPM / Fold change vs veh, CPM / RFU, DNAJB6 / Fold change vs veh, DNAJB6 / RFU, CACNA2D3 / Fold change vs veh, CACNA2D3 / RFU, DTX4 / Fold change vs veh, DTX4 / RFU, TFCP2 / Fold change vs veh, TFCP2 / RFU, GMCL1 /// GMCL1P1 / Fold change vs veh, GMCL1 /// GMCL1P1 / RFU, AEBP2 / Fold change vs veh, AEBP2 / RFU, SNHG1 /// SNORD22 /// SNORD25 /// SNORD26 /// SNORD27 /// SNORD28 /// SNORD29 /// SNORD31 / Fold change vs veh, SNHG1 /// SNORD22 /// SNORD25 /// SNORD26 /// SNORD27 /// SNORD28 /// SNORD29 /// SNORD31 / Fold change (Aza/veh), C12orf56 (ProbeSet 11735607_a_at) / Fold change (ACY-1035/veh), C12orf56 (ProbeSet 11735607_a_at) / Fold change (Aza/veh), FGFR1OP (ProbeSet 11751329_s_at) / Fold change (ACY-1035/veh), FGFR1OP (ProbeSet 11751329_s_at) / Fold change (Aza/veh), VPS36 (ProbeSet 11739960_a_at) / Fold change (ACY-1035/veh), VPS36 (ProbeSet 11739960_a_at) / RFU SYPL1 (11715823_x_at) / Fold change /veh SYPL1 (11715823_x_at) / RFU IGFBP7 (11715501_s_at) / Fold change /veh IGFBP7 (11715501_s_at) / RFU REEP3 (11722064_at) / Fold change /veh REEP3 (11722064_at) / RFU IGLL1 (11728026_x_at) / Fold change /veh IGLL1 (11728026_x_at): dose or concentration left out as unconfirmed.

For `Nc1ncn([C@@H]2O[C@H](CO)[C@@H](O)[C@H]2O)c(=O)n1` [azacitidine], the “Fold change /veh ZSCAN30 (11745921_a_at)” value turned out to be 1.18.
